The target of this assay is T1, Sentrin-specific protease 7 (Homo sapiens, UniProt Q9BQF6).
T1 sequence (Q9BQF6 whole entry): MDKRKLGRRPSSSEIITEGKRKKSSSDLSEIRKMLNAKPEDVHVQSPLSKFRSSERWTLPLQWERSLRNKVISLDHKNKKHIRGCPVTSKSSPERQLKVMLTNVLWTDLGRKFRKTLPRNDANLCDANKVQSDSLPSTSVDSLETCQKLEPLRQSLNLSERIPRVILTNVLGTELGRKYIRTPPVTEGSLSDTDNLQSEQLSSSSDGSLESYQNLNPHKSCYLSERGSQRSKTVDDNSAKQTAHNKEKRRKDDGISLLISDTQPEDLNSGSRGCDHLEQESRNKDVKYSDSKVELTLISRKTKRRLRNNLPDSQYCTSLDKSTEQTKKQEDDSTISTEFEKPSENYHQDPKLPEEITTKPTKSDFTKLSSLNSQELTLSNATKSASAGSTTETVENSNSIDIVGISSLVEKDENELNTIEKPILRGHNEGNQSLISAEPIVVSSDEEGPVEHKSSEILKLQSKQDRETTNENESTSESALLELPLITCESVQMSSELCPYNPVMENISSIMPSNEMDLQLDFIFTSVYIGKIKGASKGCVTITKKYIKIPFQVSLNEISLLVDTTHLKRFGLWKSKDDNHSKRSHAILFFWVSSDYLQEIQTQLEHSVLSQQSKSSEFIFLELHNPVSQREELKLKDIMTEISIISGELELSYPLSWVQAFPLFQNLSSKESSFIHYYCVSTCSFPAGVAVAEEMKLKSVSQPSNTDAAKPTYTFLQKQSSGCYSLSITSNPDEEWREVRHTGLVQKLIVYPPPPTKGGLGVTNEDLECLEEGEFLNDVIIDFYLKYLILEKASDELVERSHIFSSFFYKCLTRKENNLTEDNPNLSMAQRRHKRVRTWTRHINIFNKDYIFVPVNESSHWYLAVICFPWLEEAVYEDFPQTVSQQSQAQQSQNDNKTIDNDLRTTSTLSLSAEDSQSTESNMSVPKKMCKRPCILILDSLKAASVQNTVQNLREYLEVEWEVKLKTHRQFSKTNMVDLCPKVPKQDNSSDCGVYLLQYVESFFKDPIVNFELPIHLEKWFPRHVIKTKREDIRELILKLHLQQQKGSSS
The assay is classed as functional.

Active and inactive are the calls of the source. Cut-off read from the data, not from the text of the source: actives have a measured IC50 and inactives only a lower limit.
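Note: Luminescence-based dose-response confirmation of ultra-high-throughput screening hits, measuring inhibition of SENP7.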

As usually defined, the IC50 is the midpoint of a concentration-inhibition curve. On to `NS(=O)(=O)c1ccc(NC(=O)COC(=O)c2ccc([N+](=O)[O-])s2)cc1`, for which the IC50 was 7.78 µM (active). On to `CCCCNc1cc(NC(C)=O)cc2cc(OC)c(OC)cc12`, for which the IC50 was 19.9 µM (active).

These data come from ChEMBL document CHEMBL1201862, “PubChem BioAssay data set” (2004).
